Assay results from PubChem BioAssay AID489016 (The Scripps Research Institute Molecular Screening Center, 2010).

System: P. falciparum 3D7 in RBCs, 3H-hypoxanthine incorporation, 48 h
Assay: P. falciparum blood-stage growth inhibition potency, dose response, M17LAP inhibitor project, cell-based, radiolabel, RBCs, powder sample, late stage (AID 489016)

CCCCOc1ccc(CC(=O)NO)cc1
IC50: 1700 nM
